Test results: ChEMBL document CHEMBL4808208, “Hepatoselective Dihydroquinolizinone Bis-acids for HBsAg mRNA Degradation” (ACS Med Chem Lett, 2021)
Values joined by “and” are separate entries in the source; they are usually repeats but may differ in a detail not shown here. Identical values can stand only once. Active and inactive are the calls of the source. The calls are words filed in the database; no cut-off is given here.

Columns and labels:
[1] = biological target: Cytochrome P450 2C9 (Homo sapiens, UniProt P11712); assay: Inhibition of CYP2C9 in human liver microsomes using tolbutamide as substrate preincubated for 5 mins followed by NADPH addition by LC-MS/MS analysis; type: ADME
[2] = Cmax in CD-1 mouse liver at 8 mg/kg, po measured for 24 hrs by LC-MS/MS analysis; type: ADME, organism-based; set-up: route oral, dose 8 mg/kg, time 24 hrs
[3] = biological target: Cytochrome P450 3A4 (Homo sapiens, UniProt P08684); assay: Inhibition of CYP3A4 in human liver microsomes using testosterone as substrate preincubated for 5 mins followed by NADPH addition by LC-MS/MS analysis; type: ADME
[4] = Volume of distribution at steady state in CD-1 mouse at 3 mg/kg, iv measured for 24 hrs by LC-MS/MS analysis; type: ADME, organism-based; conditions: in vivo, read-out: Vdss
[5] = biological target: T1, Cytochrome P450 2A6 (Homo sapiens, UniProt P11509); assay: Inhibition of CYP2A6 in human liver microsomes using coumarin as substrate preincubated for 5 mins followed by NADPH addition by LC-MS/MS analysis; type: ADME
T1 sequence (P11509 whole entry): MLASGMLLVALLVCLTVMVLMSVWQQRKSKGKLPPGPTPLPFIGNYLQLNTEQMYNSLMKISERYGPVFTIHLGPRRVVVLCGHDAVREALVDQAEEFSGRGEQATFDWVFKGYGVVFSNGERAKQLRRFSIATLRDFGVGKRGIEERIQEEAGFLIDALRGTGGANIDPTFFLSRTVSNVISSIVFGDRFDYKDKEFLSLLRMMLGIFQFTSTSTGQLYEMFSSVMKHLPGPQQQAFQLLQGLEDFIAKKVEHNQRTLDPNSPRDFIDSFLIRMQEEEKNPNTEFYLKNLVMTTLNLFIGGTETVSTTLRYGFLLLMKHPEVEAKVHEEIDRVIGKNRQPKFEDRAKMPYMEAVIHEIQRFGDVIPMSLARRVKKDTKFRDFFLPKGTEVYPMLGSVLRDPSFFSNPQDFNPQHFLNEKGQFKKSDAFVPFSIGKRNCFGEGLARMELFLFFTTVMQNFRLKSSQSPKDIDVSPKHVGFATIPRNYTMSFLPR

[6] = test system: Hepatitis B virus; assay: Antiviral activity against Hepatitis B virus infected in human HepG2.2.15 cells assessed as reduction in HBV subgenomic 2.4/2.1 kb mRNA level at 1 uM measured after 5 days by Northern blot analysis; type: functional, organism-based; conditions: time 5.0 day
[7] = test system: Hepatitis B virus; assay: Antiviral activity against Hepatitis B virus infected in human HepG2.2.15 cells assessed as reduction in HBsAg level measured after 4 days by AlphaLisa assay; type: functional, organism-based; conditions: HepG2.2.15, 96 h
[8] = biological target: T2, Cytochrome P450 2C8 (Homo sapiens, UniProt P10632); assay: Inhibition of CYP2C8 in human liver microsomes using paclitaxel as substrate preincubated for 5 mins followed by NADPH addition by LC-MS/MS analysis; type: ADME
T2 sequence (P10632 whole entry): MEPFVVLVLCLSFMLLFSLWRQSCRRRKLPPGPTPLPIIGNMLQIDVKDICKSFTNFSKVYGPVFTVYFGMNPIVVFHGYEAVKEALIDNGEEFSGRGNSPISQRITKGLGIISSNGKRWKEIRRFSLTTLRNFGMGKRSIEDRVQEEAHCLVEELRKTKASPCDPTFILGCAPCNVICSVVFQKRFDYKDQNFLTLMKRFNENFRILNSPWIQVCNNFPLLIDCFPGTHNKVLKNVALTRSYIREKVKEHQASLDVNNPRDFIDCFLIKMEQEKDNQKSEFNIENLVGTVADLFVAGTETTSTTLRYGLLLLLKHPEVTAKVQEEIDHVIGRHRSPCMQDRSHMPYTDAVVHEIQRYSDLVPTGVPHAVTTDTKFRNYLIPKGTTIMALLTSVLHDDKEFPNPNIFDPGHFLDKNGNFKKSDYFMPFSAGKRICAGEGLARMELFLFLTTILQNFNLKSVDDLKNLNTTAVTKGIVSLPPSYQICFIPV

[9] = AUC (last) in CD-1 mouse liver at 8 mg/kg, po measured for 24 hrs by LC-MS/MS analysis; type: ADME, organism-based; set-up: route oral, time 24 hrs, dose 8 mg/kg
[10] = biological target: Cytochrome P450 2C19 (Homo sapiens, UniProt P33261); assay: Inhibition of CYP2C19 in human liver microsomes using mephenytoin as substrate preincubated for 5 mins followed by NADPH addition by LC-MS/MS analysis; type: ADME
[11] = Drug concentration in CD-1 mouse liver at 8 mg/kg, po measured after 1 hr by LC-MS/MS analysis; type: ADME, organism-based; conditions: read-out: Ct
[12] = Drug concentration in CD-1 mouse liver at 8 mg/kg, po measured after 4 hrs by LC-MS/MS analysis; type: ADME, organism-based; conditions: read-out: Ct
[13] = biological target: T3, Cytochrome P450 1A2 (Homo sapiens, UniProt P05177); assay: Inhibition of CYP1A2 in human liver microsomes using phenacetin as substrate preincubated for 5 mins followed by NADPH addition by LC-MS/MS analysis; type: ADME
T3 sequence (P05177 whole entry): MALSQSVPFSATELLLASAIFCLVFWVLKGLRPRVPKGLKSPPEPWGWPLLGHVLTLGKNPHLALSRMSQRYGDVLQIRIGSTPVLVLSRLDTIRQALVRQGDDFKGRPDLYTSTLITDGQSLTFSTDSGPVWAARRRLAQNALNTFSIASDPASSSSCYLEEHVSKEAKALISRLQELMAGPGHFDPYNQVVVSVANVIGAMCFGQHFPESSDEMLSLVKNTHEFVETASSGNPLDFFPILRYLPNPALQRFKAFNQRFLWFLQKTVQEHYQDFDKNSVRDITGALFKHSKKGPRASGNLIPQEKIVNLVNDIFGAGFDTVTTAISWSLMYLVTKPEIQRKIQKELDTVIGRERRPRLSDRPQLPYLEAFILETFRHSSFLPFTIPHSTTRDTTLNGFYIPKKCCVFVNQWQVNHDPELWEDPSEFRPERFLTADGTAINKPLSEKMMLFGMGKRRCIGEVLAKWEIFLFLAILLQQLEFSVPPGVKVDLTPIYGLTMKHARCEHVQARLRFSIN

Cytochrome P450 2C19, sequence (P33261 whole entry): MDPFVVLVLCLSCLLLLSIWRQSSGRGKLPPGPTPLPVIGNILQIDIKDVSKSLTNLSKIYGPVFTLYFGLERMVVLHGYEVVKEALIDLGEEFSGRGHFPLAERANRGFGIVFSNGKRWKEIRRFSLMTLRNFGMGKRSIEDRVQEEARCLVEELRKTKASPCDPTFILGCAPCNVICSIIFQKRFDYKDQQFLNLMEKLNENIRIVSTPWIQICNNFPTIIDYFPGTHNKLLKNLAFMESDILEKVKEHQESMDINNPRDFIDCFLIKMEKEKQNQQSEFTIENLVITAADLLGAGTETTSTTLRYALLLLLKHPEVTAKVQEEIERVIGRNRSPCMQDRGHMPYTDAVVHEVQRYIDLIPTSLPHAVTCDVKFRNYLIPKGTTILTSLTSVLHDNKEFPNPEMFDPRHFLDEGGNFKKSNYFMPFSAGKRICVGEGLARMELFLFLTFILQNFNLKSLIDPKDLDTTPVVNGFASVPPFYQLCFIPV
Cytochrome P450 2C9, sequence (P11712 whole entry): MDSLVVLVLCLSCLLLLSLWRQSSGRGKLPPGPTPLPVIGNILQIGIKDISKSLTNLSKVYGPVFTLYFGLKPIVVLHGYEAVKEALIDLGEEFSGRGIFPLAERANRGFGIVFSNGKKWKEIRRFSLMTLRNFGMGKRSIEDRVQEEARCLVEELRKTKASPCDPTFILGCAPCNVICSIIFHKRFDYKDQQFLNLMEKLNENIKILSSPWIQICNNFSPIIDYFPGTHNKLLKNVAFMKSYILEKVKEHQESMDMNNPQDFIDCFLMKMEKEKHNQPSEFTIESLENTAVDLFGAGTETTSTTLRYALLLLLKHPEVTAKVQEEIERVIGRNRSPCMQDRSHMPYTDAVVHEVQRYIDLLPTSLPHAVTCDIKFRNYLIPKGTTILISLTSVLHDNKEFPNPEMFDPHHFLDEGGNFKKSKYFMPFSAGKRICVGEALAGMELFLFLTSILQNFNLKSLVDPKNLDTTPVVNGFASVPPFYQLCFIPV
Cytochrome P450 3A4, sequence (P08684 whole entry): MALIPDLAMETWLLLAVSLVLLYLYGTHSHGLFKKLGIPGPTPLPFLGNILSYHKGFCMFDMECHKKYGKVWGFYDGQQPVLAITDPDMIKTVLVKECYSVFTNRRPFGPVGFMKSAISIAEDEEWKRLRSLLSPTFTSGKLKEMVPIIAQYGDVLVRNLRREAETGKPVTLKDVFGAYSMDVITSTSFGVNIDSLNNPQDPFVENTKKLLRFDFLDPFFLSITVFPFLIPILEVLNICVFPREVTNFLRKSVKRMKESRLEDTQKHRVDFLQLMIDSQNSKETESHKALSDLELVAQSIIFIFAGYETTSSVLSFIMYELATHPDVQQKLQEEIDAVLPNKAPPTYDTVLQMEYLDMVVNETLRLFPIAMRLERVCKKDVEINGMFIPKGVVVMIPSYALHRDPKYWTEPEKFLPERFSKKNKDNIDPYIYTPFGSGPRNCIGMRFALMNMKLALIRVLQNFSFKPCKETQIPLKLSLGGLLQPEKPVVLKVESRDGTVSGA

IC50 [1]: > 10 µM
Cmax [2]: 333 ng/mL
IC50 [3]: > 10 µM
Vd [4]: 3.26 L/kg
IC50 [5]: > 10 µM
EC50 [7]: 0.023 µM
IC50 [8]: > 10 µM
AUC(0-t) at 24 h [9]: 1310 ng·h/mL
IC50 [10]: > 10 µM
concentration at 1 h [11]: 300 ng/mL and 660 nM
concentration at 4 h [12]: 138 ng/mL and 300 nM
IC50 [13]: > 10 µM
Compound: COc1cc2c(cc1OCCCCCCC(=O)O)C[C@@H](C(C)C)n1cc(C(=O)O)c(=O)cc1-2
Activity [6]: Active
